Laboratory results: the CheMixHub ionic liquid set

Assay: xn = mol fraction of the nth substance listed
Settings: 100 kPa, x1 = 0.5

C[N+](C)(CCO)CCOCCO.[Cl-] + NC(N)=O
Settings	viscosity [mPa·s]
283.15 K	19700
288.15 K	10900
293.15 K	5978
298.15 K	3500
303.15 K	2189
308.15 K	1389
313.15 K	903
318.15 K	616
323.15 K	424
328.15 K	305
333.15 K	221
338.15 K	166
343.15 K	126
348.15 K	97.9
353.15 K	77.4
